Columns and labels:
Assay in all cases: relative viability (nuclei count vs DMSO), 5 days (fraction); higher = more cells survive
[1] = compound: COc1cc(Nc2c(C#N)cnc3cc(OCCCN4CCN(C)CC4)c(OC)cc23)c(Cl)cc1Cl [Bosutinib] + O=C(c1cc(Cc2n[nH]c(=O)c3ccccc23)ccc1F)N1CCN(C(=O)C2CC2)CC1 [Olaparib] (partner 8 µM)
In short: (§1)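 Five library-drug doses in √10 steps were combined with a fixed anchor-drug dose, or a single drug was given alone, by pin tool to lung cancer cell lines in 1536-well plates the day after seeding. Nuclei were stained and counted after 5 days. Relative viability is the nuclei count in treated wells over that in vehicle wells, taken as the median of duplicate plates.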

[2] = compound: COc1cc(Nc2c(C#N)cnc3cc(OCCCN4CCN(C)CC4)c(OC)cc23)c(Cl)cc1Cl [Bosutinib] + Nc1ncn([C@H]2C[C@H](O)[C@@H](CO)O2)c(=O)n1 [Decitabine] (partner 2 µM)
In short: as §1

[3] = compound: COc1cc(Nc2c(C#N)cnc3cc(OCCCN4CCN(C)CC4)c(OC)cc23)c(Cl)cc1Cl [Bosutinib] + O=C(CCCCCCC(=O)Nc1ccccc1)NO [Vorinostat] (partner 1 µM)
In short: as §1

[4] = compound: COc1cc(Nc2c(C#N)cnc3cc(OCCCN4CCN(C)CC4)c(OC)cc23)c(Cl)cc1Cl [Bosutinib] + Cc1nc(NC(=O)N2CCC[C@H]2C(N)=O)sc1-c1ccnc(C(C)(C)C(F)(F)F)c1 [Alpelisib] (partner 2 µM)
In short: as §1

[5] = compound: COc1cc(Nc2c(C#N)cnc3cc(OCCCN4CCN(C)CC4)c(OC)cc23)c(Cl)cc1Cl [Bosutinib] + Nc1nc2[nH]cc(CCc3ccc(C(=O)N[C@@H](CCC(=O)O)C(=O)O)cc3)c2c(=O)[nH]1 [Pemetrexed] (partner 0.2 µM)
In short: as §1

Cell Line | relative viability ([1]; first compound 0.01 µM) | relative viability ([1]; first compound 0.03162 µM) | relative viability ([1]; first compound 0.1 µM) | relative viability ([1]; first compound 1 µM) | relative viability ([2]; first compound 0.01 µM) | relative viability ([2]; first compound 0.03162 µM) | relative viability ([2]; first compound 0.1 µM) | relative viability ([2]; first compound 1 µM) | relative viability ([3]; first compound 0.01 µM) | relative viability ([3]; first compound 0.03162 µM) | relative viability ([3]; first compound 0.1 µM) | relative viability ([3]; first compound 1 µM) | relative viability ([4]; first compound 0.01 µM) | relative viability ([4]; first compound 0.03162 µM) | relative viability ([4]; first compound 0.1 µM) | relative viability ([4]; first compound 1 µM) | relative viability ([5]; first compound 0.01 µM) | relative viability ([5]; first compound 0.03162 µM) | relative viability ([5]; first compound 0.1 µM) | relative viability ([5]; first compound 1 µM)
COR-L 105 | 0.677 | 0.743 | 0.844 | 0.603 | 0.642 | 0.608 | 0.72 | 0.47 | 0.861 | 0.844 | 0.828 | 0.624 | 0.869 | 1.27 | 0.871 | 0.565 | 1.22 | 1.1 | 0.979 | 0.777
NCI-H838 | 0.84 | 0.752 | 0.684 | 0.406 | 0.467 | 0.507 | 0.422 | 0.411 | 0.741 | 0.766 | 0.755 | 0.746 | 0.961 | 0.879 | 0.864 | 0.432 | 0.268 | 0.229 | 0.246 | 0.253
EMC-BAC-2 | 0.48 | 0.525 | 0.51 | 0.621 | 0.963 | 0.967 | 0.992 | 0.988 | 0.427 | 0.713 | 0.831 | 0.396 | 0.757 | 0.731 | 0.723 | 0.657 | 0.426 | 0.444 | 0.446 | 0.448
LU99A | 0.234 | 0.291 | 0.284 | 0.245 | 0.871 | 0.945 | 0.961 | 0.861 | 0.51 | 0.495 | 0.573 | 0.483 | 0.53 | 0.545 | 0.568 | 0.674 | 0.2 | 0.208 | 0.193 | 0.182
PC-3 [JPC-3] | 1.08 | 1.09 | 1.06 | 0.663 | 0.883 | 0.798 | 0.826 | 0.596 | 0.853 | 0.983 | 0.918 | 0.541 | 0.962 | 1.03 | 1.02 | 0.937 | 1.1 | 1.08 | 1.11 | 0.688
NCI-H596 | 0.73 | 0.715 | 0.705 | 0.564 | 1.03 | 1.07 | 1.05 | 0.876 | 0.685 | 0.557 | 0.509 | 0.573 | 0.505 | 0.992 | 0.945 | 0.348 | 0.576 | 0.464 | 0.503 | 0.505
LCLC-97TM1 | 0.41 | 0.402 | 0.372 | 0.351 | 0.249 | 0.262 | 0.215 | 0.271 | 0.925 | 0.763 | 0.811 | 0.823 | 0.232 | 0.244 | 0.371 | 0.344 | 0.18 | 0.181 | 0.211 | 0.228
NCI-H1993 | 0.988 | 0.996 | 1.04 | 1.01 | 0.599 | 0.655 | 0.655 | 0.568 | 0.727 | 0.733 | 0.654 | 0.885 | 0.635 | 0.69 | 0.641 | 0.669 | 0.506 | 0.663 | 0.611 | 0.686
HARA | 0.896 | 0.825 | 0.761 | 0.515 | 0.581 | 0.547 | 0.618 | 0.489 | 0.544 | 0.654 | 0.754 | 0.592 | 0.842 | 0.817 | 0.874 | 0.502 | 0.237 | 0.27 | 0.244 | 0.264
NCI-H460 | 0.388 | 0.407 | 0.392 | 0.414 | 0.5 | 0.475 | 0.539 | 0.419 | 0.719 | 0.717 | 0.761 | 0.775 | 0.5 | 0.533 | 0.428 | 0.201 | 0.0612 | 0.0671 | 0.0657 | 0.073
EKVX | 0.925 | 0.86 | 0.876 | 0.628 | 0.382 | 0.38 | 0.311 | 0.336 | 0.645 | 0.73 | 0.747 | 0.629 | 0.894 | 0.89 | 0.847 | 0.476 | 0.403 | 0.406 | 0.381 | 0.361
NCI-H1755 | 0.874 | 0.998 | 0.861 | 0.885 | 0.639 | 0.678 | 0.713 | 0.804 | 0.809 | 0.919 | 0.904 | 0.731 | 0.916 | 0.961 | 0.998 | 0.739 | 0.405 | 0.488 | 0.468 | 0.45
NCI-H1395 | 0.456 | 0.511 | 0.468 | 0.487 | 0.687 | 0.756 | 0.688 | 0.735 | 0.802 | 0.827 | 0.862 | 0.787 | 1.23 | 1.09 | 1.18 | 0.913 | 0.964 | 0.966 | 0.958 | 0.926
NCI-H2087 | 0.663 | 0.599 | 0.749 | 0.649 | 0.289 | 0.311 | 0.294 | 0.271 | 0.777 | 0.5 | 0.647 | 0.697 | 1.18 | 1.15 | 1.19 | 1 | 0.705 | 0.626 | 0.741 | 0.631
H3255 | 0.568 | 0.56 | 0.598 | 0.421 |  | 0.725 | 0.804 | 0.354 |  | 0.832 | 0.858 | 0.768 | 0.686 | 0.743 | 0.669 | 0.198 | 0.555 | 0.596 | 0.621 | 0.446
SK-MES-1 | 0.671 | 0.896 | 0.798 | 0.458 | 0.412 | 0.482 | 0.428 | 0.314 | 1.21 | 1.13 | 1.12 | 0.812 | 0.876 | 0.971 | 0.999 | 1.06 | 0.94 | 1.03 | 0.938 | 0.556
